The text below walks through data of ChEMBL document CHEMBL5212743, “Selectivity Literature for EUbOPEN Chemogenomics Library wave 3” (2023).

pIC50, pKi: −log10 of the molar value. Bounds are passed on as bounds.

Series [1] has as its target Hepatocyte growth factor receptor (Homo sapiens) (UniProt P08581). Briefly: (§1) Selectivity interaction (KinomeScan (DiscoverX)) EUB0000707a MET. Particulars: at 1 µM.
The test system of series [2] is Hepatocyte growth factor receptor (Homo sapiens), P08581 [M1250T]. The description is as §1. The note with it: at 1 µM.
Series [3] addresses T1, Gamma-aminobutyric acid receptor subunit alpha-1 (Homo sapiens, UniProt P14867).
T1 sequence (P14867 whole entry): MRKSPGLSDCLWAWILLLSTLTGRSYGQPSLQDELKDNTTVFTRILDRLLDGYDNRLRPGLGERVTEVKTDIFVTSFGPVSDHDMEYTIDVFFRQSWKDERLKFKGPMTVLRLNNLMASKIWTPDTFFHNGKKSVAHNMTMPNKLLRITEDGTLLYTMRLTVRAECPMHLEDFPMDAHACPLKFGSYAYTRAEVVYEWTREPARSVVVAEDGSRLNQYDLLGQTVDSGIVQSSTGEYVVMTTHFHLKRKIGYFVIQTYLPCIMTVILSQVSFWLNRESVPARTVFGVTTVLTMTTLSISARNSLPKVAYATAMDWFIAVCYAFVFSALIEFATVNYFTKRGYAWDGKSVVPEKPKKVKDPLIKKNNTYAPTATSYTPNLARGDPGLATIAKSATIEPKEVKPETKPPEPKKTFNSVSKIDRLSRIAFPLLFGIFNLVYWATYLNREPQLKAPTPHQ
The experiment in a line: (§2) Selectivity interaction (GPCR panel (PDSP screen)) EUB0000707a GABRA1.

Series [4] has as its target T1, Gamma-aminobutyric acid receptor subunit alpha-1. Described as §2. This is another data set of the same source.
In series [5] the target is Interleukin-1 receptor-associated kinase 4 (Homo sapiens) (UniProt Q9NWZ3). The experiment in a line: Selectivity interaction (KinomeScan (DiscoverX)) EUB0000707a IRAK4. Particulars: at 1 µM.
Series [6] addresses Phosphatidylinositol 4-kinase beta (Homo sapiens) (UniProt Q9UBF8). The experiment in a line: Selectivity interaction (KinomeScan (DiscoverX)) EUB0000707a PI4KB. The note with it: at 1 µM.
The target in series [7] is Sigma intracellular receptor 2 (Homo sapiens, UniProt Q5BJF2). The experiment in a line: Selectivity interaction (GPCR panel (PDSP screen)) EUB0000310b TMEM97.
Series [8] addresses STE20/SPS1-related proline-alanine-rich protein kinase (Homo sapiens) (UniProt Q9UEW8). Briefly: Selectivity interaction (KinomeScan (DiscoverX)) EUB0000310b STK39.
The target in series [9] is Interferon-induced, double-stranded RNA-activated protein kinase (Homo sapiens) (UniProt P19525). Briefly: Selectivity interaction (KinomeScan (DiscoverX)) EUB0000310b EIF2AK2.
Series [10] has as its target Voltage-dependent L-type calcium channel subunit alpha-1C (Homo sapiens, UniProt Q13936). Briefly: Selectivity interaction (Eurofins Panlabs panel (receptors, ion channel, and other enzymes)) EUB0000310b CACNA1C. Particulars: at 10 µM.
Series [11] concerns the target Serine/threonine-protein kinase 38-like (Homo sapiens, UniProt Q9Y2H1). Briefly: Selectivity interaction (KinomeScan (DiscoverX)) EUB0000310b STK38L.
Series [12] addresses Tyrosine-protein kinase receptor TYRO3 (Homo sapiens) (UniProt Q06418). Briefly: Selectivity interaction (KinomeScan (DiscoverX)) EUB0000542a TYRO3. Particulars: at 1 µM.
Series [13] addresses Polyunsaturated fatty acid 5-lipoxygenase (Homo sapiens) (UniProt P09917). The experiment in a line: (§3) Selectivity interaction (Eurofins-Panlabs screen) EUB0000542a ALOX5. Particulars: at 10 µM.
Series [14] addresses Tyrosine-protein kinase JAK1 (Homo sapiens, UniProt P23458). The experiment in a line: Selectivity interaction (KinomeScan (DiscoverX)) EUB0000542a JAK1@kinase 2. The note with it: at 1 µM.
The target in series [15] is Polyunsaturated fatty acid 5-lipoxygenase (Homo sapiens, UniProt P09917). The description is as §3.
A further series addresses Thromboxane-A synthase (Homo sapiens, UniProt P24557). The experiment in a line: (§4) Selectivity interaction (Eurofins-Panlabs screen) EUB0000542a CYP5A1.
The target in series [16] is Thromboxane-A synthase (Homo sapiens) (UniProt P24557). Described as §4. Particulars: at 10 µM.
Series [17] has as its target Serine/threonine-protein kinase Chk2 (Homo sapiens, UniProt O96017). The experiment in a line: Selectivity interaction (KinomeScan (DiscoverX)) EUB0000542a CHEK2. Particulars: at 1 µM.
The target in series [18] is Sodium-dependent dopamine transporter (Homo sapiens, UniProt Q01959). Briefly: Selectivity interaction (GPCR panel (PDSP screen)) EUB0000541a SLC6A3.
The target in series [19] is eIF-2-alpha kinase GCN2 (Homo sapiens) (UniProt Q9P2K8). Briefly: Selectivity interaction (KinomeScan (DiscoverX)) EUB0000301b EIF2AK4. The note with it: at 1 µM.
For series [20], the target named is T1, Gamma-aminobutyric acid receptor subunit alpha-1. The experiment in a line: Selectivity interaction (GPCR panel (PDSP screen)) EUB0000301b GABRA1.
Series [21] addresses Cyclin-dependent kinase 8 (Homo sapiens) (UniProt P49336). Briefly: Selectivity interaction (KinomeScan (DiscoverX)) EUB0000301b CDK8. Particulars: at 1 µM.

Sequence of Hepatocyte growth factor receptor (Homo sapiens), P08581 [M1250T] (P08581 whole entry M1250T): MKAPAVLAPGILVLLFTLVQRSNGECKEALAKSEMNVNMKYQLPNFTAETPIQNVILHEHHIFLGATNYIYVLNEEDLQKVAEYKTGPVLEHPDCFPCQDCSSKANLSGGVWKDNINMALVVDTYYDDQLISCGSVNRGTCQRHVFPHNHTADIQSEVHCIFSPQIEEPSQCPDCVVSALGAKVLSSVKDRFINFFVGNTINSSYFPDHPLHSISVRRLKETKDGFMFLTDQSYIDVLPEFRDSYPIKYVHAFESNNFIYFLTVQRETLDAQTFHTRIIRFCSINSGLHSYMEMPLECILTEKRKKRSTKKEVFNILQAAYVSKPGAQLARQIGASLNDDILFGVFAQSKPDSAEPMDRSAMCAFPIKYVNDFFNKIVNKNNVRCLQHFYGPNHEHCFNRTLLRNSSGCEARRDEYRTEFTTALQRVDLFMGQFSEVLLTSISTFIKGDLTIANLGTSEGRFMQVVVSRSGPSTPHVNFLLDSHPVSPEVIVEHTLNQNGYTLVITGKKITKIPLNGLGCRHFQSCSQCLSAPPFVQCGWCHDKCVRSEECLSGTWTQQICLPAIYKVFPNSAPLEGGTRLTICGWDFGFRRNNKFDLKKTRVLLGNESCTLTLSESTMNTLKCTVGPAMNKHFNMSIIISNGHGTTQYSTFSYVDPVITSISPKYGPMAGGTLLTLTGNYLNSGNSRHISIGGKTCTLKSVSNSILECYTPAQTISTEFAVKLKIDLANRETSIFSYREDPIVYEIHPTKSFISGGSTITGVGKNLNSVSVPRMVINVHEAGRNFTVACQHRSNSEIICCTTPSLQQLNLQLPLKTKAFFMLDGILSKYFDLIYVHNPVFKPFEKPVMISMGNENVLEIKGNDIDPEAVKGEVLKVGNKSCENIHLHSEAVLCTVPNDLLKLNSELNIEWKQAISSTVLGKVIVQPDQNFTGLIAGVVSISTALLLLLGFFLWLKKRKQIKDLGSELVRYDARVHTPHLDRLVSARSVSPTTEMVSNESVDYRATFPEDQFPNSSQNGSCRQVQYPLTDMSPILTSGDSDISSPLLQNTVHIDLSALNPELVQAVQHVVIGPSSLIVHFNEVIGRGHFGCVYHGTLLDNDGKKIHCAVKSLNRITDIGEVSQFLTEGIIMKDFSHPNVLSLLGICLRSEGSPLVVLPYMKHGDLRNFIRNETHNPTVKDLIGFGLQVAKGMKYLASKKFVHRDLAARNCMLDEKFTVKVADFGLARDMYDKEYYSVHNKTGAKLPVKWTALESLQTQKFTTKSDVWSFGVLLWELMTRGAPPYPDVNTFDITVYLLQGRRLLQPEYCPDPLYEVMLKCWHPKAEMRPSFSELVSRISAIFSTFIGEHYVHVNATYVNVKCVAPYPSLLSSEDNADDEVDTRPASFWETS
Sequence of Serine/threonine-protein kinase Chk2 (O96017 whole entry): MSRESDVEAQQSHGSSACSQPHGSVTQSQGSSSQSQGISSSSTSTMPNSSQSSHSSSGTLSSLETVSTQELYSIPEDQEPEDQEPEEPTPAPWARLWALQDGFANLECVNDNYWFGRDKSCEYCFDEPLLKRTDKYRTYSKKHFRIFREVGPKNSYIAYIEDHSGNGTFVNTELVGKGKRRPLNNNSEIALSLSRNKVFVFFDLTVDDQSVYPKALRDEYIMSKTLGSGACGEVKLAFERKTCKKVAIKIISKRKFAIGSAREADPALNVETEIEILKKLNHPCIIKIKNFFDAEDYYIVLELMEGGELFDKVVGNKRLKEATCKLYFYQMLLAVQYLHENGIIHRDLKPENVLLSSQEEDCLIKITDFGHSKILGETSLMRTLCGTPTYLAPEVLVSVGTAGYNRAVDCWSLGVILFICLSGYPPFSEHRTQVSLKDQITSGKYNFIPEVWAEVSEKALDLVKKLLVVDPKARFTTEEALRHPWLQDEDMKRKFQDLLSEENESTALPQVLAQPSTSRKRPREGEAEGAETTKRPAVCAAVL
Sequence of eIF-2-alpha kinase GCN2 (Homo sapiens) (Q9P2K8 whole entry): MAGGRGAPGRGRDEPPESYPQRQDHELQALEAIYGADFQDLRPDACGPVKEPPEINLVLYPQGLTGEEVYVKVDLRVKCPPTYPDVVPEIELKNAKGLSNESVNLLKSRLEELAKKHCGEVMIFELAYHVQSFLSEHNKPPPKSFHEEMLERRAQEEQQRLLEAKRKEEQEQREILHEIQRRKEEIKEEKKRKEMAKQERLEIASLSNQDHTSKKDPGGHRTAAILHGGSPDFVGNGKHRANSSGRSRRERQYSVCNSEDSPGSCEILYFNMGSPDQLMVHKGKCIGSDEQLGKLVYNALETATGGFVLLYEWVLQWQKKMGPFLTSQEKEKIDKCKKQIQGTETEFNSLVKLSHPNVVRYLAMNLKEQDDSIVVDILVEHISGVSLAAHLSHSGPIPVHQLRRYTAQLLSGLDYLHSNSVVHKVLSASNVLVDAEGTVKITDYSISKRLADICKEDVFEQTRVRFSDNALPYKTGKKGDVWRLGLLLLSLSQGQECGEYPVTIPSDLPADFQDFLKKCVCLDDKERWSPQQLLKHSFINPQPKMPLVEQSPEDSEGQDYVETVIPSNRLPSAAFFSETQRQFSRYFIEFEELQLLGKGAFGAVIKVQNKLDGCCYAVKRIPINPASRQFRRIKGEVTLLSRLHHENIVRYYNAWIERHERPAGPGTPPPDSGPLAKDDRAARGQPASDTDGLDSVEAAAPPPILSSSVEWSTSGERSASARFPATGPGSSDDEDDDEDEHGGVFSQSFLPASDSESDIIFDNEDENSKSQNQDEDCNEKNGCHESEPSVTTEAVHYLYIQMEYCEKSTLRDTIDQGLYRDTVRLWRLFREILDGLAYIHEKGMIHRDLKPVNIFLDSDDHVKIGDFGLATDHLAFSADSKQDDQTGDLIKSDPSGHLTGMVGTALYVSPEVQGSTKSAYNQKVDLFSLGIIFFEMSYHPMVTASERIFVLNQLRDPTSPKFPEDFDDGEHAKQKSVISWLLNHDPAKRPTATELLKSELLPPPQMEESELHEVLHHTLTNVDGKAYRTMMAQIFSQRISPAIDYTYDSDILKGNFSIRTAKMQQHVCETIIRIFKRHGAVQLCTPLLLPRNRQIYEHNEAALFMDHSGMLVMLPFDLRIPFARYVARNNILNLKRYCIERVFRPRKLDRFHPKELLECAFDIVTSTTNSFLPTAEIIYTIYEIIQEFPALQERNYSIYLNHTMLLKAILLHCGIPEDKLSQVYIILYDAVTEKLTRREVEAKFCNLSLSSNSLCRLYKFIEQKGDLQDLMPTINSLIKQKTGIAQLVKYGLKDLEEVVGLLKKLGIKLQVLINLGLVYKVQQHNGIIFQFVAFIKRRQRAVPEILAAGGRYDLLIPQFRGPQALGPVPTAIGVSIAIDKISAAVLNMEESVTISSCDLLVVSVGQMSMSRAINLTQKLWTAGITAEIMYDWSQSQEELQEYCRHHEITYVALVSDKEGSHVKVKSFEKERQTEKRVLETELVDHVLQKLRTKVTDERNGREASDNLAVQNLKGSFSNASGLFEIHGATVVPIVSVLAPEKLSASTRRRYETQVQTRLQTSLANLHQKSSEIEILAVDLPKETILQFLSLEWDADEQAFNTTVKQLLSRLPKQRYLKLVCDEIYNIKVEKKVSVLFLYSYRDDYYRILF
Sequence of Polyunsaturated fatty acid 5-lipoxygenase (P09917 whole entry): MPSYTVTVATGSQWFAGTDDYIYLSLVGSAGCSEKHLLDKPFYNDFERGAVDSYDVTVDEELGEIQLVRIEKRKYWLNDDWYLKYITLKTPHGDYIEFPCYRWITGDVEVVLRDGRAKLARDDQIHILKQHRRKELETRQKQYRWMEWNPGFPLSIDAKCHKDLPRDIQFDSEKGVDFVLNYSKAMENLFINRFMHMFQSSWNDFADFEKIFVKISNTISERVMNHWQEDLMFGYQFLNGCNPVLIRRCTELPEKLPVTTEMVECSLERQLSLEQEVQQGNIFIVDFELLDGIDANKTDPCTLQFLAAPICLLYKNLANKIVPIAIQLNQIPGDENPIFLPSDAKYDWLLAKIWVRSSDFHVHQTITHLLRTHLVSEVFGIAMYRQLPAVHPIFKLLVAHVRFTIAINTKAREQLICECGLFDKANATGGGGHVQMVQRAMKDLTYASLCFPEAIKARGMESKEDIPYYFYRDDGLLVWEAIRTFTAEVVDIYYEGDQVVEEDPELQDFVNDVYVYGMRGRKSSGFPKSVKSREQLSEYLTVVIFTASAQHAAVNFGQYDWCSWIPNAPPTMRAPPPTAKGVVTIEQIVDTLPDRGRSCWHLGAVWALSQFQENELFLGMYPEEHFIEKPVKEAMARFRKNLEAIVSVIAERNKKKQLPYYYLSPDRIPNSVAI
Sequence of Polyunsaturated fatty acid 5-lipoxygenase (Homo sapiens) (P09917 whole entry): as above
Sequence of Sodium-dependent dopamine transporter (Q01959 whole entry): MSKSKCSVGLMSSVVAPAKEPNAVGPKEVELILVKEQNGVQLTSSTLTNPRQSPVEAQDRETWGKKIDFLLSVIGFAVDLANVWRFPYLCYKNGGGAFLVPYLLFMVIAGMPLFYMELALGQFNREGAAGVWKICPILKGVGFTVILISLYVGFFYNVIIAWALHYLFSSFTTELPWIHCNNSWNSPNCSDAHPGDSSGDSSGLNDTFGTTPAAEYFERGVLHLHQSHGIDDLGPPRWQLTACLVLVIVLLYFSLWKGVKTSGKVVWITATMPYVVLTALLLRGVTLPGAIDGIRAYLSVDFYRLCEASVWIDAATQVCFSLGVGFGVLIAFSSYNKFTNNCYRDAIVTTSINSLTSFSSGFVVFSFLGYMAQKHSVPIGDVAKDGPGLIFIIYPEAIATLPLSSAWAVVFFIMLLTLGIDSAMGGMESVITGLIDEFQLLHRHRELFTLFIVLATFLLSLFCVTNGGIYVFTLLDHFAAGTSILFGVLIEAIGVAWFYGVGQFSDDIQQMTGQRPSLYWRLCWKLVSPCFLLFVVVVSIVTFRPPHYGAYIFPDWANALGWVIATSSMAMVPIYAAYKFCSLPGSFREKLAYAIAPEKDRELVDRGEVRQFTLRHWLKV
Sequence of Sigma intracellular receptor 2 (Q5BJF2 whole entry): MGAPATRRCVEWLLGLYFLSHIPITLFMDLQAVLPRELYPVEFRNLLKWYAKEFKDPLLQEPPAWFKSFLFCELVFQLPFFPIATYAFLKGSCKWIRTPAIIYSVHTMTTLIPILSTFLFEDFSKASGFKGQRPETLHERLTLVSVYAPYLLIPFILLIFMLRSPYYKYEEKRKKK

For `CC1=C(C#N)C(c2ccc3c(c2)c(NC(=O)c2ccccc2C)nn3C)C(C#N)=C(C)N1` [BAY-974], the % of control is 24% in series [1], 27% in [2], 7.5% in series [5] and 30% in [6]. For the same molecule, the pKi in series [3] and in series [4] was 7.68 throughout.

For `C[C@H](NC(=O)c1cnc2n1[C@](C)(Cc1ccc(C#N)cc1)C(=O)N2c1cc(Cl)c(F)c(Cl)c1)C(=O)NC1(c2ccccn2)CC1` [BI 1950], the figures for the % of inhibition in [7] and in series [10] were 26% and 72%, respectively. For the same molecule, the values for the % of control in series [8], in [9] and in series [11] were 24%, 34% and 49%, respectively.

For the molecule `CCOCCn1cc(C(=O)Nc2ccc(-n3nc(-c4cccnc4)cc3C(F)(F)F)cn2)ccc1=O` [BI 1935], the figures for the % of control in [12], in series [14] and in series [17] were 0%, 37% and 0%, respectively. Besides, the % of inhibition in [13] was found to be 66%; in series [16], 96%. The negative-log IC50 (pIC50) in series [15] is 5.23; against Thromboxane-A synthase it was 6.88.

The molecule `O=C(Nc1ccc(-n2nc(-c3cccnc3)cc2C(F)(F)F)cn1)c1ccc(-c2ccccc2)c(F)c1` [BI 2049] showed a pKi in series [18] of less than 5.00.

With `O=c1nc(-c2ccccn2)sc2ccccc12` [BTZO-1], the % of control is 47% in [19] and 36% in series [21]. The same molecule had a negative-log Ki (pKi) in [20] of 6.03.

What is called pKi is −log10 of the Ki, conventionally taken in molar units. High values mean a low Ki, low ones a high Ki. Usually pIC50 stands for −log10 of the IC50, conventionally taken in molar units. Read a low pIC50 as a high IC50.
